From the NIST ThermoML archive (doi:10.1021/je700408x) come the findings set out here.

The conditions of this data set: Liquid; for mass density: 303.15 K, 101.33 kPa, Pycnometric method; for vapor or sublimation pressure / Normal boiling temperature: Ebulliometric method (Recirculating still).

Numbers after ± are expanded uncertainties.

By mass density is commonly meant the mass of a sample divided by its volume. In general, vapor or sublimation pressure refers to the equilibrium pressure above the liquid or solid. Turning to `CC(Cl)(Cl)Cl` [1,1,1-trichloroethane], the mass density was 1320.97 ± 9.8 kg/m3 and the Normal boiling temperature amounted to 74.20 ± 0.41 °C. Also, the “vapor or sublimation pressure” value (345.45 K) worked out at 95.3 ± 2 kPa.
Consider `ClC(Cl)C(Cl)Cl` [1,1,2,2-tetrachloroethane], for which the mass density stood at 1578.59 ± 14 kg/m3 and the Normal boiling temperature is 145.20 ± 0.41 °C. Moreover, the “vapor or sublimation pressure” value (417.05 K) is 95.3 ± 2 kPa.
Consider `ClCCCl` [1,2-dichloroethane], for which the mass density is reported as 1238.41 ± 8.6 kg/m3 and the Normal boiling temperature amounted to 83.80 ± 0.41 °C. Besides, the “vapor or sublimation pressure” value (355.05 K) is 95.3 ± 2 kPa.
Take `C[S+](C)[O-]` [dimethyl sulfoxide]: the mass density is 1090.4 ± 6.7 kg/m3 and the Normal boiling temperature was found to be 189.04 ± 0.41 °C. The “vapor or sublimation pressure” value (460.95 K) stood at 95.3 ± 2 kPa.
Consider `ClC(Cl)=C(Cl)Cl` [tetrachloroethene], for which the mass density worked out at 1606.39 ± 14 kg/m3 and the Normal boiling temperature was determined as 121.00 ± 0.41 °C. Further, the “vapor or sublimation pressure” value (391.95 K) was 95.3 ± 2 kPa.
Consider `ClC=C(Cl)Cl` [trichloroethene], for which the mass density is recorded as 1451.42 ± 12 kg/m3 and the Normal boiling temperature was found to be 87.10 ± 0.41 °C. Moreover, under “357.75 K”, the “vapor or sublimation pressure” value stood at 95.3 ± 2 kPa.
